Assays:
[1] = Bioavailability in rat; type: ADME, organism-based; conditions: in vivo
Matrilysin = target: T1, Matrilysin (Homo sapiens, UniProt P09237); test: Inhibition of human MMP-7
T1 sequence (P09237 whole entry): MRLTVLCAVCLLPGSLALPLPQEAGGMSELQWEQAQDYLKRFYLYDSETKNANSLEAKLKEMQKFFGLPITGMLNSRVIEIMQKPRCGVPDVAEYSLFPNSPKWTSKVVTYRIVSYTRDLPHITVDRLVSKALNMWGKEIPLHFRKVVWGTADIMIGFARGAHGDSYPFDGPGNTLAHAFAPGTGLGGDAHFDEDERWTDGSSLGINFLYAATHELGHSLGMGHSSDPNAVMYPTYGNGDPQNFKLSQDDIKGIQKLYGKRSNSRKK

Interstitial collagenase = target: T2, Interstitial collagenase (Homo sapiens, UniProt P03956); test: Inhibition of human MMP-1
T2 sequence (P03956 whole entry): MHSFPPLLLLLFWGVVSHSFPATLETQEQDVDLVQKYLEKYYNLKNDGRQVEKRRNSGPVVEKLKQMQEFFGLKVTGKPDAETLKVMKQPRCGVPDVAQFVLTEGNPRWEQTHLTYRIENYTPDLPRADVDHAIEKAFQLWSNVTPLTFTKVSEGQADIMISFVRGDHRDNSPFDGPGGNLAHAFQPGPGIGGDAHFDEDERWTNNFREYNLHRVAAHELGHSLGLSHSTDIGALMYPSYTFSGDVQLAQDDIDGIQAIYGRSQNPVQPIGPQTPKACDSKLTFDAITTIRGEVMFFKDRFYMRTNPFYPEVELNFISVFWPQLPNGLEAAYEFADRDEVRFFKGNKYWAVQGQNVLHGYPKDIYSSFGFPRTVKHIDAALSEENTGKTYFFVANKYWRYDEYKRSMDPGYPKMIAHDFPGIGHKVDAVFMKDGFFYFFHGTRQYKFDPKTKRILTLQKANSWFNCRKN

Collagenase 3 = Collagenase 3 (Homo sapiens, UniProt P45452); test: Inhibition of human MMP-13
[2] = target: 72 kDa type IV collagenase (Homo sapiens, UniProt P08253); test: Inhibition of human MMP-2
Stromelysin-1 = Stromelysin-1 (Homo sapiens, UniProt P08254); test: Inhibition of human MMP-3
Neutrophil collagenase = Neutrophil collagenase (Homo sapiens, UniProt P22894); test: Inhibition of human MMP-8
[3] = target: Matrix metalloproteinase-14 (Homo sapiens, UniProt P50281); test: Inhibition of human MMP-14
[4] = Cmax in rat; type: ADME, organism-based; conditions: in vivo
[5] = Clearance in rat; type: ADME, organism-based; conditions: in vivo
[6] = target: Matrix metalloproteinase-9 (Homo sapiens, UniProt P14780); test: Inhibition of human MMP-9
[7] = Half life in rat; type: ADME, organism-based; conditions: in vivo

Chain of 72 kDa type IV collagenase (P08253 whole entry): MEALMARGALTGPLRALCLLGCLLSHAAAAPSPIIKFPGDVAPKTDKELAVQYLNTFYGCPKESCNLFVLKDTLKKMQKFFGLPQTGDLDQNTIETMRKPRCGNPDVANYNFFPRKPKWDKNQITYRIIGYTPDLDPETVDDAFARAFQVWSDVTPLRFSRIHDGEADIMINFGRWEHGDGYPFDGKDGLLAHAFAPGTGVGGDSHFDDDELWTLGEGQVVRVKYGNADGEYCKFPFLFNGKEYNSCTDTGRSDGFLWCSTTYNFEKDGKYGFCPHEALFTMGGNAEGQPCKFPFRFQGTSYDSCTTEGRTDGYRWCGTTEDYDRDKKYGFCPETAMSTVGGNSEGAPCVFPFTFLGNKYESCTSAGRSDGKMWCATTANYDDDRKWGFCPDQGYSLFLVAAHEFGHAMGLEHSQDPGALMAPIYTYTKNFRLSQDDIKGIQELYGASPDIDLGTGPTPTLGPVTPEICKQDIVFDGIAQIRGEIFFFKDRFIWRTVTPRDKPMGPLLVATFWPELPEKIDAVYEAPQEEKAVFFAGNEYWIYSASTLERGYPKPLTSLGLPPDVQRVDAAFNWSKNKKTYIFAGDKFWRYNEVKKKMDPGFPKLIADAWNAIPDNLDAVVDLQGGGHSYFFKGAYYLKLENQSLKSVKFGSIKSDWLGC
Chain of Stromelysin-1 (P08254 whole entry): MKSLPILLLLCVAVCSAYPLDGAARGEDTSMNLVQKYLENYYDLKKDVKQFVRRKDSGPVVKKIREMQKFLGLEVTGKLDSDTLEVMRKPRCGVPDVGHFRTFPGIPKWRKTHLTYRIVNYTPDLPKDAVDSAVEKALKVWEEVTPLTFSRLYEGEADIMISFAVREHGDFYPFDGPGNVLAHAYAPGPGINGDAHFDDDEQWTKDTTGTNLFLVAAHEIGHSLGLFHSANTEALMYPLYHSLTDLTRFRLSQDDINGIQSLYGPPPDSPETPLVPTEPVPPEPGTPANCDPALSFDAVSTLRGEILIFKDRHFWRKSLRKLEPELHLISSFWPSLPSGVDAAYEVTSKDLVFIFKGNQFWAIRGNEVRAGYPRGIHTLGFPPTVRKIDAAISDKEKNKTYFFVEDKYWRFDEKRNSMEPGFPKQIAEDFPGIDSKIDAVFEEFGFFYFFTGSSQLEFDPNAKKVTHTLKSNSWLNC
Chain of Matrix metalloproteinase-9 (P14780 whole entry): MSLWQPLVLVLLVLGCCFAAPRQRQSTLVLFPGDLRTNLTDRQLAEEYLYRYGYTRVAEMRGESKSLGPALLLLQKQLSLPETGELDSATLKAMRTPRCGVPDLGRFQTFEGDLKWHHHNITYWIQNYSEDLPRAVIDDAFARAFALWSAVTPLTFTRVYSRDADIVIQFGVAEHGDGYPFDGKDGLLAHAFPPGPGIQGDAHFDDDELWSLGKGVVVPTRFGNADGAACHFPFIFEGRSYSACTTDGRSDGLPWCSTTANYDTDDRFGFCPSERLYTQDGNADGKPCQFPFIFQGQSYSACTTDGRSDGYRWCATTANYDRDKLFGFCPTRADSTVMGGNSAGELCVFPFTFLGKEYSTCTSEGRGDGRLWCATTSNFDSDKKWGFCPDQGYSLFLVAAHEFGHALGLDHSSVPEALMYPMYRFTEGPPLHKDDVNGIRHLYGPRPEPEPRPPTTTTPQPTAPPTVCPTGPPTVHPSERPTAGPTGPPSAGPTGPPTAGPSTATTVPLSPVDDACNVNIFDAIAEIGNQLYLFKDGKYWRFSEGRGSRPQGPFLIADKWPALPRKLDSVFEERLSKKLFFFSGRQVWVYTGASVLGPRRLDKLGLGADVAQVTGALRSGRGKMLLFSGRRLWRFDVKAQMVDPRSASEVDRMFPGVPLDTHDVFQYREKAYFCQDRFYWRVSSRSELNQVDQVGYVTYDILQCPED
Chain of Neutrophil collagenase (P22894 whole entry): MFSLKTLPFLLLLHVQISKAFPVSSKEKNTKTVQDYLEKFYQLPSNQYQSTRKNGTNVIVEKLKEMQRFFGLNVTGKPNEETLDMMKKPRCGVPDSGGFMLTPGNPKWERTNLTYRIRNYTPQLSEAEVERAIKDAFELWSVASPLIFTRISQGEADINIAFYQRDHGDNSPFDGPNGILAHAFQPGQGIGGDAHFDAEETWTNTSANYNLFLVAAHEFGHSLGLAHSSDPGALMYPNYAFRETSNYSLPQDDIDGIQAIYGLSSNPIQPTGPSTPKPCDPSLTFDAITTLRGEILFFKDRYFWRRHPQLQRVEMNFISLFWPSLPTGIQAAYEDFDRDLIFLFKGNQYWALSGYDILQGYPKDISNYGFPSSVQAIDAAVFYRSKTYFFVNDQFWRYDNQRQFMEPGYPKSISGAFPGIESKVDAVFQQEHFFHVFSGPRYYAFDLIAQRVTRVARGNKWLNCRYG

bioavailability [1] [%] | Ki (Matrilysin) [nM] | Ki (Interstitial collagenase) [nM] | Ki (Collagenase 3) [nM] | Ki [2] [nM] | Ki (Stromelysin-1) [nM] | Ki (Neutrophil collagenase) [nM] | Ki [3] [nM] | Cmax [4] [ng/mL] | clearance [5] [mL/min/kg] | Ki [6] [nM] | half-life [7] [h] | IC50 (Collagenase 3) [nM] | IC50 [2] [nM] | IC50 (Stromelysin-1) [nM] | IC50 (Neutrophil collagenase) [nM] | IC50 [6] [nM] | IC50 (Matrilysin) [nM] | SMILES
7.3 | 7100 | > 10000 | 1.2 | 430 | 9.9 | 72 | > 10000 | 3500 | 42 | 1700 | 4 |  |  |  |  |  |  | O=C(NO)C1(S(=O)(=O)c2ccc(OCCCc3nnnn3-c3ccc(OC(F)(F)F)cc3)cc2)CCOCC1
68 | 7000 | > 10000 |  |  |  |  |  | 21900 |  |  | 2.9 | < 0.1 | < 0.1 |  |  |  |  | COCCN1CCC(C(=O)NO)(S(=O)(=O)c2ccc(Oc3ccc(OC(F)(F)F)cc3)cc2)CC1
 | > 10000 | > 10000 | 3.7 | 9200 | 130 | 140 | > 10000 |  |  | > 10000 |  |  |  |  |  |  |  | O=C(NO)C1(S(=O)(=O)c2ccc(OCCCn3cncc3-c3ccc(OC(F)(F)F)cc3)cc2)CCOCC1
32 | > 10000 | > 10000 | 0.66 | 410 | 28 | 170 | > 10000 | 61 | 12 | 1200 | 2.4 |  |  |  |  |  |  | O=C(NO)C1(S(=O)(=O)c2ccc(OCCCn3nnc(-c4ccc(OC(F)(F)F)cc4)n3)cc2)CCOCC1
 |  | 5600 |  |  |  |  | > 10000 |  |  |  |  |  |  | 39 | 190 | 1100 |  | COc1ccc(-c2nnn(CCCOc3ccc(S(=O)(=O)C4(C(=O)NO)CCOCC4)cc3)n2)cc1
1.7 | 3000 | > 10000 | 0.66 | 110 | 44 | 240 | > 10000 | 3500 | 46 | 370 | 2 |  |  |  |  |  |  | Cc1ccc(-c2nnn(CCCOc3ccc(S(=O)(=O)C4(C(=O)NO)CCOCC4)cc3)n2)nc1
26 | 8600 | > 10000 | 0.13 |  | 8.7 | 8000 | > 10000 | 1400 |  |  | 1.3 |  |  |  |  |  |  | COCCN1CCC(C(=O)NO)(S(=O)(=O)c2ccc(OCCCn3nnc(-c4ccc(OC(F)(F)F)cc4)n3)cc2)CC1
22 | > 10000 |  |  |  | 31 | 180 |  | 240 | 14 |  | 1.4 |  |  |  |  |  |  | O=C(NO)C1(S(=O)(=O)c2ccc(OCCCc3nc(-c4ccc(OC(F)(F)F)cc4)no3)cc2)CCOCC1
 | 6000 | > 10000 | 1.7 | 530 | 59 | 74 | > 10000 |  |  | 1800 |  |  |  |  |  |  |  | O=C(NO)C1(S(=O)(=O)c2ccc(OCCCn3cnc(-c4ccc(OC(F)(F)F)cc4)c3)cc2)CCOCC1
5 | 970 | > 10000 | 0.6 | 400 | 3 | 250 | > 10000 | 3000 | 63 | 2400 | 4.8 |  |  |  |  |  |  | Cc1ccc(-c2nnnn2CCCOc2ccc(S(=O)(=O)C3(C(=O)NO)CCOCC3)cc2)nc1
 |  | > 10000 | 1.6 | 550 | 900 | 900 | > 10000 | 0.02 |  | > 10000 | 0.59 |  |  |  |  |  |  | COc1ccc(C(=O)NCCCOc2ccc(S(=O)(=O)C3(C(=O)NO)CCOCC3)cc2)cc1
28 | > 10000 |  | 2 | 410 | 37 | 260 |  | 2200 | 19 | 370 | 2.4 |  |  |  |  |  |  | CCN1CCC(C(=O)NO)(S(=O)(=O)c2ccc(OCCCc3nc(-c4ccc(OC(F)(F)F)cc4)no3)cc2)CC1
14 |  | > 10000 |  |  |  |  | > 10000 | 4200 |  |  | 1.2 | 0.7 | 1300 | 90 | 1200 | 1200 | > 10000 | COc1ccc(C(=O)N2CCN(c3ccc(S(=O)(=O)C4(C(=O)NO)CCOCC4)cc3)CC2)cc1

Source: ChEMBL document CHEMBL1770140, “MMP-13 selective α-sulfone hydroxamates: a survey of P1' heterocyclic amide isosteres” (Bioorg Med Chem Lett, 2011)
